What was measured:
Na^+,K+ -ATPase [1] = settings: Gelbart and Thomas 1978; Schonfeld and Repke 1988; Thomas et al. 1974; Boutagy et al. 1973; cited from earlier work
[2] = Gelbart and Thomas 1978; Schonfeld and Repke 1988; cited from earlier work
Na^+,K+ -ATPase [3] = biological target: T1, Na^+,K+ -ATPase (Canis lupus familiaris, UniProt P50997); assay: displacement of the specific ^3 H-ouabain binding from the Na^+,K+ -ATPase receptor
T1 construct: Na^+,K+ -ATPase receptor purified according to Jorghensen; from tissue
Text: (§1) To test the affinity for the receptor site of the Na^+,K+ -ATPase and the agonist or antagonist activity on the enzyme, the following tests were used:
a) displacement of the specific ^3 H-ouabain binding from the Na^+,K+ -ATPase receptor purified according to Jorghensen (Jorghensen P., BBA, 1974, 356, 36) and Erdmann (Erdmann E. et al., Arzneim. Forsh., 1984, 34, 1314);

Na^+,K+ -ATPase [4] = biological target: T1, Na^+,K+ -ATPase; assay: inhibition of the activity of the purified Na^+,K+ -ATPase measured as % of hydrolysis of ^32 P-ATP; format: biochemical
Text: as §1
b) inhibition of the activity of the purified Na^+,K+ -ATPase measured as % of hydrolysis of ^32 P-ATP in presence and in absence of the tested compound (Mall F. et al., Biochem. Pharmacol, 1984, 33, 47)

[5] = system: spontaneous hypertensive rats (MHS); assay: effect of 5 week-treatment on the development of hypertension in rats (SBP and HR, tail cuff method); format: in vivo, rat; settings: 20 mg/Kg/os daily in Methocel 0.5% w/v, 5 weeks, 7 rats; for SBP: controls 172 +/- 3.5; for HR: controls 380 +/- 9.0
Protocol: Systolic blood pressure (SBP) and heart rate (HR) were measured, by the tail cuff method, in young prehypertensive male rats (MHS or SHR) strains before the development of hypertension (4 weeks of age) for recording the basal values of SBP. Groups of 7 rats were formed and subdivided in control and treated groups. The compound, suspended in Methocel 0.5 % (w/v), was orally given daily for at least 5 weeks to the treated groups. The control group received only Methocel.
SBP and HR were measured weekly 6 and 24 hrs after treatment. After 5 weeks of treatment, when hypertension was fully developed in the control group (9 weeks of age), washout was started for at least one week, to verify whether the treatment mantained blood pressure low or reestablished the basal values. […] (Takeda K. et al., Japan J. Pharmacol, 1979, 29,171; Takeda K. et al. Japan J. Pharmacol., 1982, 32, 283; Richer C. et al. Eur. J. Pharmacol, 1978, 47,393).

[6] = purified Na^+,K+ -ATPase, hydrolysis of ^32 P-ATP
[7] = purified Na^+,K+ -ATPase receptor, read-out: Binding ^3 H-Ouab. Displacement log IC50 (converted)
[8] = purified Na^+,K+ -ATPase, hydrolysis of ^32 P-ATP, read-out: Inhibitory Activity log IC50 (converted)

Structure (SMILES): C[C@]12CC[C@H](O)C[C@H]1CC[C@@H]1[C@@H]2CC[C@]2(C)C(C=NNC(=N)N)CC[C@]12O (stereo partly drawn) [17-Guanidinoiminomethyl-5β-androstane-3β,14β-diol]
- inhibition of Na^+,K+ -ATPase (Na^+,K+ -ATPase [1]): weak inhibitors of Na^+,K+ -ATPase
- positive inotropic activity [2]: weak positive inotropic agents

Structure (SMILES): C[C@]12CC[C@H](O)C[C@H]1CC[C@@H]1[C@@H]2CC[C@]2(C)C(=NNC(=N)N)CC[C@]12O [17-guanidinoimino-5β-androstane-3β,14β-diol]
- inhibition of Na^+,K+ -ATPase (Na^+,K+ -ATPase [1]): weak inhibitors of Na^+,K+ -ATPase
- positive inotropic activity [2]: weak positive inotropic agents

Structure (SMILES): C[C@]12CC[C@H](O)C[C@H]1CC[C@@H]1[C@@H]2CC[C@]2(C)[C@@H](/C=N/NC3=NCCN3)CC[C@]12O [Comp. I-aa, (E)-17β-(2-Imidazolin-2-yl)hydrazonomethyl-5β-androstane-3β,14β-diol]
- IC50 (Na^+,K+ -ATPase [3]): 200 nM
- Inhibitory Activity log IC50 (Na^+,K+ -ATPase [4]; [6]): 5.2
- SBP [5]: 149 +/- 3.7 mm Hg
- HR [5]: 370 +/- 11.2 beats/min.

Structure (SMILES): CN1CCN=C1N/N=C/[C@H]1CC[C@]2(O)[C@@H]3CC[C@@H]4C[C@@H](O)CC[C@]4(C)[C@H]3CC[C@]12C [Comp. I-ac, (E)-17β-(1-Methyl-2-imidazolin-2-yl)hydrazono-methyl-5β-androstane-3β,14β-diol]
- IC50 (Na^+,K+ -ATPase [3]): 1000 nM
- IC50 (Na^+,K+ -ATPase [4]): 12600 nM

Structure (SMILES): C[C@]12CC[C@H](O)C[C@H]1CC[C@@H]1[C@@H]2CC[C@]2(C)[C@@H](/C=N/NC3=NCCCN3)CC[C@]12O [Comp. I-ae, (E)-17β-(1,4,5,6-Tetrahydro-2-pyrimidinyl)hydrazonomethyl-5β-androstane-3β,14β-diol]
- IC50 (Na^+,K+ -ATPase [3]): 251 nM
- Inhibitory Activity log IC50 (Na^+,K+ -ATPase [4]; [6]): 5.3

Structure (SMILES): C[C@]12CC[C@H](O)C[C@H]1CC[C@@H]1[C@@H]2CC[C@]2(C)[C@@H](/C=N/NC(=N)NC(=N)N)CC[C@]12O [Comp. I-af, (E)-17β-(3-Amidino)guanidinoiminomethyl-5β-androstane-3β,14β-diol]
- IC50 (Na^+,K+ -ATPase [3]): 200 nM
- IC50 (Na^+,K+ -ATPase [4]): 7940 nM

Structure (SMILES): CN(C)CCNC(=N)N/N=C/[C@H]1CC[C@]2(O)[C@@H]3CC[C@@H]4C[C@@H](O)CC[C@]4(C)[C@H]3CC[C@]12C [Comp. I-ag, (E)-17β-(3-(2-Dimethylaminoethyl)guanidinoimino)methyl-5β-androstane-3β,14β-diol]
- IC50 (Na^+,K+ -ATPase [3]; [7]): 1000 nM
- IC50 (Na^+,K+ -ATPase [4]): 25100 nM
- SBP [5]: 154 +/- 4.8 mm Hg
- HR [5]: 390 +/- 5.9 beats/min.

Structure (SMILES): C[C@]12CC[C@H](O)C[C@H]1CC[C@@H]1[C@@H]2CC[C@]2(C)[C@@H](/C=N/N=C(\N)Nc3ccccc3)CC[C@]12O [Comp. I-ah, (E)-17β-(3-Phenylguanidino)iminomethyl-5β-androstane-3β,14β-diol]
- IC50 (Na^+,K+ -ATPase [3]; [7]): 6310 nM
- IC50 (Na^+,K+ -ATPase [4]): 100000 nM

Structure (SMILES): CSC(=N)N/N=C/[C@H]1CC[C@]2(O)[C@@H]3CC[C@@H]4C[C@@H](O)CC[C@]4(C)[C@H]3CC[C@]12C [Comp. I-ak, (E)-17β-(3-Methylisothiosemicarbazono)methyl-5β-androstane-3β,14-diol]
- IC50 (Na^+,K+ -ATPase [3]): 2000 nM
- IC50 (Na^+,K+ -ATPase [4]): 31600 nM

Structure (SMILES): C[C@]12CC[C@H](OCCCN)C[C@H]1CC[C@@H]1[C@@H]2CC[C@]2(C)[C@@H](/C=N/NC(=N)N)CC[C@]12O [Comp. I-al, (E)-3β-(3-Aminopropoxy)-17β-guanidinoiminomethyl-5β-androstane-14β-ol]
- IC50 (Na^+,K+ -ATPase [3]): 39.8 nM
- IC50 (Na^+,K+ -ATPase [4]; [8]): 794 nM
- SBP [5]: 153 +/- 6.3 mm Hg
- HR [5]: 380 +/- 10.0 beats/min.

Structure (SMILES): C[C@]12CC[C@H](OCCN3CCCC3)C[C@H]1CC[C@@H]1[C@@H]2CC[C@]2(C)[C@@H](/C=N/NC(=N)N)CC[C@]12O [Comp. I-an, (E)-3β-(2-(1-pyrrolidinyl)ethoxy)-17β-guanidinoiminomethyl-5β-androstane-14β-ol]
- IC50 (Na^+,K+ -ATPase [3]; [7]): 39.8 nM
- IC50 (Na^+,K+ -ATPase [4]; [8]): 501 nM
- SBP [5]: 150 +/- 5.1 mm Hg
- HR [5]: 384 +/- 7.9 beats/min.

Structure (SMILES): C[C@]12CC[C@H](OCCCN)C[C@H]1CC[C@@H]1[C@@H]2CC[C@]2(C)[C@@H](/C=N/NC(N)=O)CC[C@]12O [Comp. I-aq, (E)-3β-(3-Aminopropoxy)-17β-semicarbazonomethyl-5β-androstane-14β-ol]
- IC50 (Na^+,K+ -ATPase [3]): 1260 nM
- IC50 (Na^+,K+ -ATPase [4]; [8]): 39800 nM

Structure (SMILES): C[C@]12CC[C@H](OCCN3CCCC3)C[C@H]1CC[C@@H]1[C@@H]2CC[C@]2(C)[C@@H](/C=N/NC(N)=O)CC[C@]12O [Comp. I-as, (E)-3β-(2-(1-Pyrrolidinyl)ethoxy)-17β-semicarbazonomethyl-5β-androstane-14β-ol]
- IC50 (Na^+,K+ -ATPase [3]): 1580 nM
- IC50 (Na^+,K+ -ATPase [4]; [8]): 39800 nM

Structure (SMILES): C[C@]12CC[C@H](OCCCN)C[C@H]1CC[C@@H]1[C@@H]2CC[C@]2(C)[C@@H](/C=N/NC3=NCCN3)CC[C@]12O [Comp. I-au, (E)-3β-(3-Aminopropoxy)-17β(2-imidazolin-2-yl)hydrazonomethyl-5β-androstane-14β-ol]
- IC50 (Na^+,K+ -ATPase [3]): 100 nM
- IC50 (Na^+,K+ -ATPase [4]): 3980 nM

Structure (SMILES): C[C@]12CC[C@H](OCCN3CCCC3)C[C@H]1CC[C@@H]1[C@@H]2CC[C@]2(C)[C@@H](/C=N/NC3=NCCN3)CC[C@]12O [Comp. I-aw, (E)-3β-(2-(1-Pyrrolidinyl)ethoxy)-17β-(2-imidazolin-2-yl)hydrazonomethyl-5β-androstane-14β-ol]
- IC50 (Na^+,K+ -ATPase [3]; [7]): 100 nM
- IC50 (Na^+,K+ -ATPase [4]; [8]): 398 nM
- SBP [5]: 151 +/- 5.2 mm Hg
- HR [5]: 388 +/- 9.0 beats/min.

Structure (SMILES): C[C@]12CCC(=NNC(=N)N)C[C@H]1CC[C@@H]1[C@@H]2CC[C@]2(C)[C@@H](/C=N/NC(=N)N)CC[C@]12O [Comp. I-bi, 3-[(ZE)-Guanidinoimino]-17β-[(E)-guanidinoiminomethyl]-5β-androstane-14β-ol]
- IC50 (Na^+,K+ -ATPase [3]): 126 nM
- IC50 (Na^+,K+ -ATPase [4]): 5010 nM

Structure (SMILES): C/C(=N\N=C(N)N)[C@H]1CC[C@]2(O)[C@@H]3CC[C@@H]4C[C@@H](O)CC[C@]4(C)[C@H]3CC[C@]12C [Comp. I-bk, (E)-20-Guanidinoimino-5β-pregnane-3β,14β-diol]
- IC50 (Na^+,K+ -ATPase [3]): 251 nM
- IC50 (Na^+,K+ -ATPase [4]): 5010 nM

Structure (SMILES): C[C@]12CC[C@H](O)C[C@H]1CC[C@@H]1[C@@H]2CC[C@]2(C)[C@@](O)(/C=N/NC(=N)N)CC[C@]12O [Comp. I-bl, (E)-17β-Guanidinoiminomethyl-5β-androstane-3β,14β,17α-triol]
- IC50 (Na^+,K+ -ATPase [3]; [7]): 1580 nM
- IC50 (Na^+,K+ -ATPase [4]; [8]): 39800 nM

Structure (SMILES): C[C@]12CC[C@H](O)C[C@H]1CC[C@@H]1[C@@H]2CC[C@]2(C)[C@@](O)(/C=N/NC3=NCCN3)CC[C@]12O [Comp. I-bn, (E)-17β-(2-Imidazolin-2-yl)hydrazonomethyl-5β-androstane-3β,14β,17α-triol]
- IC50 (Na^+,K+ -ATPase [3]): 3980 nM
- IC50 (Na^+,K+ -ATPase [4]): 12600 nM

Structure (SMILES): C[C@]12CC[C@H](O)C[C@H]1CC[C@@H]1[C@@H]2CC[C@]2(C)/C(=N/NC3=NCCN3)CC[C@]12O [Comp. I-bo, (E)-17-(2-Imidazolin-2-yl)hydrazono-5β-androstane-3β,14β-diol]
- IC50 (Na^+,K+ -ATPase [3]; [7]): 2000 nM
- IC50 (Na^+,K+ -ATPase [4]; [8]): 39800 nM

Reference: patent US5538960A, “Hydrazono-5β, 14β-androstane derivatives active on the cardiovascular system, and pharmaceutical compositions containing same” (SIGMA-TAU Industrie Farmaceutiche Riunite S.p.A., priority 1992, dated 1996)
